Where two headings read alike, the source gives them in different places.
Columns and labels:
PPMS patients [1] = conditions: cited from earlier work
[2] = Intracellular pharmacokinetics of Cd-AMP and Cd-ATP in patients with chronic myelogenous leukemia; conditions: human, in vivo
Method: After entering the target cells, Cladribine is phosphorylated to Cladribine monophosphate (Cd-AMP) by DCK (and also by deoxyguanosine kinase in the mitochondria). Cd-AMP is further phosphorylated to Cladribine diphosphate (Cd-ADP) and Cladribine triphosphate (Cd-ATP). The dephosphorylation and deactivation of Cd-AMP is catalyzed by cytoplasmic […].
Intracellular half-life of Cd-ATP was 10 h.

[3] = Cladribine pharmacokinetics following oral administration; conditions: MS patients; after oral administration of single 10-mg tablet
PPMS patients [4] = conditions: cited from earlier work; remark: listed apart in the source
PPMS patients [5] = conditions: ORATORIO, cited from earlier work

For glatiramer acetate, the study outcome (PPMS patients [1]; PROMISE Study in PPMS) is given as “did not reach meaningful clinical endpoints”, the “EDSS progression overall HR (95% CI)” value (PPMS patients [1]; PROMISE, CDP (3)) is given as 0.87 and the “% with CDP study drug, CDP (3) Month 12” value (PPMS patients [1]; PROMISE, PPMS) is given as 22%. For the same compound, the “% with CDP study drug, CDP (3) Month 24” value (PPMS patients [1]; PROMISE, PPMS) was 41%.
In the case of `Nc1nc(Cl)nc2c1ncn2[C@H]1C[C@H](O)[C@@H](COP(=O)(O)OP(=O)(O)OP(=O)(O)O)O1` [Cd-ATP, 2-chlorodeoxyadenosine triphosphate], the half-life [2] is reported as 10 h and the “intracellular levels relative to Cd-AMP” value [2] is reported as “approximately half of the Cd-AMP levels”.
In the case of Cladribine monophosphate [Cd-AMP], the Intracellular half-life [2] is reported as 15 h.
In the case of `Nc1nc(Cl)nc2nc[nH]c12` [2-chloroadenine], the “metabolite share of plasma parent drug exposure” value [3] is reported as under 3%.
For “rituximab: study drug of the OLYMPUS study in PPMS”, the study outcome (PPMS patients [4]; OLYMPUS study in PPMS) is given as “did not reach meaningful clinical endpoints”, the “EDSS progression overall HR (95% CI)” value (PPMS patients [4]; OLYMPUS, CDP (3)) is given as 0.77 and the “% with CDP study drug, CDP (3) Week 48” value (PPMS patients [4]; OLYMPUS, PPMS) is given as 20.2%. The “% with CDP study drug, CDP (3) Week 96” value (PPMS patients [4]; OLYMPUS, PPMS) was 30.2% and the “% with CDP study drug, CDP (6) Week 96” value (PPMS patients [4]; OLYMPUS, PPMS) was 27.3%.
For “ocrelizumab: humanized monoclonal antibody that targets the CD20 surface molecule on B-cells”, the “EDSS progression overall HR (95% CI)” value (PPMS patients [5]; CDP (3)) is given as 0.76, the “EDSS progression overall HR (95% CI)” value (PPMS patients [5]; CDP (6)) is given as 0.75 and the “% with CDP study drug, CDP (3) Week 120” value (PPMS patients [5]) is given as 32.9%. The “% with CDP study drug, CDP (6) Week 120” value (PPMS patients [5]) was 29.7%, the “% with CDP study drug, CDP (3) Month 12” value (PPMS patients [5]; derived from the KM) was about 13.2% and the “% with CDP study drug, CDP (6) Month 12” value (PPMS patients [5]; derived from the KM) was about 15.2%.
